From PubChem BioAssay (NCI)
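Protocol summary: plate cells (96-well), add compound at 5 concentrations, incubate 48 h, interpolate endpoints linearly. Abbreviation: GI50, concentration required for 50% inhibition of growth. TGI is the concentration that stops growth completely.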

Experiments:
Experiment in all cases: NCI tumour cell line growth inhibition, 48 h
[1] = tested on: 786-0 renal
[2] = tested on: A498 renal
[3] = tested on: A549 NSCLC
[4] = tested on: ACHN renal
[5] = tested on: BT-549 breast
[6] = tested on: CAKI-1 renal
[7] = tested on: CCRF-CEM leukemia
[8] = tested on: COLO 205 colon
[9] = tested on: DU-145 prostate
[10] = tested on: HCC-2998 colon
[11] = tested on: HCT-116 colon
[12] = tested on: HCT-15 colon
[13] = tested on: HL-60(TB) leukemia
[14] = tested on: HOP-62 NSCLC
[15] = tested on: HOP-92 NSCLC
[16] = tested on: HS 578T breast
[17] = tested on: HT29 colon
[18] = tested on: K-562 leukemia
[19] = tested on: KM12 colon
[20] = tested on: LOX IMVI melanoma
[21] = tested on: M14 melanoma
[22] = tested on: MALME-3M melanoma
[23] = tested on: MCF7 breast
[24] = tested on: MDA-MB-231 breast
[25] = tested on: MDA-MB-435
[26] = tested on: MOLT-4 leukemia
[27] = tested on: NCI-H226 lung

`COc1ccc2c(c1)c(CC(=O)[Se]CCC#N)c(C)n2C(=O)c1ccc(Cl)cc1` gave a GI50 [1] of 1.92 µM, a TGI [1] of 3.47 µM and a GI50 [2] of 1.6 µM. It also gave a TGI [2] of 3.08 µM, a GI50 [3] of 1.87 µM and a TGI [3] of 3.86 µM. The GI50 [4] was 2.93 µM, the TGI [4] was 7.79 µM and the GI50 [5] was 1.71 µM. The TGI [5] was 3.35 µM, the GI50 [6] was 1.93 µM and the TGI [6] was 3.5 µM. The GI50 [7] was 2.43 µM, the TGI [7] was over 100 µM and the GI50 [8] was 2.26 µM. The TGI [8] was 4.67 µM, the GI50 [9] was 2.26 µM and the TGI [9] was 5.93 µM. The GI50 [10] was 3.61 µM, the TGI [10] was 12.8 µM and the GI50 [11] was 1.74 µM. The TGI [11] was 3.34 µM, the GI50 [12] was 2.17 µM and the TGI [12] was 5.27 µM. The GI50 [13] was 1.2 µM, the TGI [13] was 6.25 µM and the GI50 [14] was 1.77 µM. It also gave a TGI [14] of 3.46 µM, a GI50 [15] of 1.5 µM and a TGI [15] of 3.11 µM. For the same compound, the GI50 [16] was 2.35 µM, the TGI [16] was 8.79 µM and the GI50 [17] was 2.45 µM. The TGI [17] was 7.39 µM, the GI50 [18] was 3.24 µM and the TGI [18] was over 100 µM. It also gave a GI50 [19] of 4.13 µM, a TGI [19] of 31 µM and a GI50 [20] of 1.54 µM. The TGI [20] was 3.96 µM, the GI50 [21] was 1.39 µM and the TGI [21] was 3.04 µM. For the same compound, the GI50 [22] was 1.7 µM, the TGI [22] was 4.36 µM and the GI50 [23] was 2.56 µM. For the same compound, the TGI [23] was 9.7 µM, the GI50 [24] was 2.04 µM and the TGI [24] was 4.97 µM. The GI50 [25] was 1.75 µM, the TGI [25] was 3.47 µM and the GI50 [26] was 2.9 µM. It also gave a TGI [26] of over 100 µM and a GI50 [27] of 1.55 µM.
